Publication PMC8654833 (Scientific Reports, 2021)
Several values for one entry are separate records, joined by “and”; a condition that tells them apart may be missing. Equal values may be shown once.

Tests used:
[1] = Plasma and brain distribution after single IP injection; details: CD-1, mouse, 10 mg/kg
5-HT2B receptor = details: cited from earlier work
[2] = Plasma pharmacokinetics after IV, PO or SC administration; details: for half-life / bioavailability: in vivo
5-HT1A = molecular target: T1, 5-HT1A (Homo sapiens, UniProt P08908); assay: Radioligand binding competition dose-response (Euroscreen), 5-HT1A
T1 construct: Euroscreen FAST (contract assay)
T1 sequence (P08908 1-422): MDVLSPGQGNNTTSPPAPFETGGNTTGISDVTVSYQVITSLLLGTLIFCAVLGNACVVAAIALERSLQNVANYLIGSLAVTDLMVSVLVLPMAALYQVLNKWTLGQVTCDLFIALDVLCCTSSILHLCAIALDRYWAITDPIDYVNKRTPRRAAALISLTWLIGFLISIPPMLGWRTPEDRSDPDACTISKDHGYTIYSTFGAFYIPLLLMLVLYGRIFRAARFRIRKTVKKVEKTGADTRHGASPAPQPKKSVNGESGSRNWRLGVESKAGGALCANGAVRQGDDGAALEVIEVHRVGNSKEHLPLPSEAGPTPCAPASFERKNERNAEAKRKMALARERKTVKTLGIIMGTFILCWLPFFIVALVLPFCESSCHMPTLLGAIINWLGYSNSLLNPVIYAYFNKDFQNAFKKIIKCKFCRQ
Description: (§1) This study included binding assays (87 GPCR targets), measured as % of binding inhibition of a reference radioligand, as well as uptake and enzyme assays (19 targets), the latter measured as % inhibition of control enzyme activity. […] It was performed by radioligand binding competition by Euroscreen (Euroscreen FAST, Belgium). The following nanomolar concentrations were tested in duplicate: 0.001, 0.01, 0.1, 1, 10, 100, 1000, 10,000. Dose–response curves were fitted with the least squares method. IC50 results are shown as pIC50, corresponding to the negative log10 of IC50 in molar.

NET = molecular target: T2, NET (Homo sapiens, UniProt P23975); assay: Single-concentration radioligand binding screen (Eurofins Cerep), norepinephrine transporter; details: single concentration 10 µM screen, 3H]nisoxetine
T2 construct: Euroscreen FAST (contract assay)
T2 sequence (P23975 whole entry): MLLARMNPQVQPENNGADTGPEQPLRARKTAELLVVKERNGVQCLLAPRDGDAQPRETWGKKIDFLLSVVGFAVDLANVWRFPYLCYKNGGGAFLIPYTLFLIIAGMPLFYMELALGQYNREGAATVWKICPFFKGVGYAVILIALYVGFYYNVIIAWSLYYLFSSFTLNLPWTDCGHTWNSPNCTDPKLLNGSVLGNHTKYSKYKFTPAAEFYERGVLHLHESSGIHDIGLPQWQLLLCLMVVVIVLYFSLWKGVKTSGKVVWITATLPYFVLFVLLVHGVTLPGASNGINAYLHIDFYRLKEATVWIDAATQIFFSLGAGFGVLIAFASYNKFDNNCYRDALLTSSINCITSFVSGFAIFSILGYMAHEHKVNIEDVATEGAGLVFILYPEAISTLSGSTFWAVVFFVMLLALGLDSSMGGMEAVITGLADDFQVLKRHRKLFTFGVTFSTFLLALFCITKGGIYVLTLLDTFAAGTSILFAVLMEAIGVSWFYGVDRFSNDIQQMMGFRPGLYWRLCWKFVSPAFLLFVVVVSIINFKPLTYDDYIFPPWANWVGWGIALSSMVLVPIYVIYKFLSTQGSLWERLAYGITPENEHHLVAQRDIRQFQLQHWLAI
Description: as §1

5-HT1B = molecular target: T3, 5-HT1B (Homo sapiens, UniProt P28222); assay: Radioligand binding competition dose-response (Euroscreen), 5-HT1B
T3 construct: Euroscreen FAST (contract assay)
T3 sequence (P28222 whole entry, species assumed): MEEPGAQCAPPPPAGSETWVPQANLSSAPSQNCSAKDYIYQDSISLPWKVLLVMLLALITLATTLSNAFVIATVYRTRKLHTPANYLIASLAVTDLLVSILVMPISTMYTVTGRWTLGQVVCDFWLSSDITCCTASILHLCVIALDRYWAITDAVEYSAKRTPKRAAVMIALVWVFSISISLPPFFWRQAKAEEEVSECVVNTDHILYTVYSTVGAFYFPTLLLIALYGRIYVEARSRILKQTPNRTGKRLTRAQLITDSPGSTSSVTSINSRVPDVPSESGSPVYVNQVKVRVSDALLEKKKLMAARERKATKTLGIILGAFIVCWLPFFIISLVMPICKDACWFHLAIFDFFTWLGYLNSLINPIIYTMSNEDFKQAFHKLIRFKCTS
Description: as §1

mitral valve = assay: Mitral valve thickness by histology (hematoxylin/eosin); format: in vivo; details: Sod1^G86R mice, 3 mg/kg/d; vehicle 57.7 µm
Description: To this aim, we measured mitral valve thickness using histology (Fig. 3). […] The lack of beneficial effect of BW on survival and motor function is not due to the developpement of valvulopathy nor cardiac failure. Thus, BW is not protective in Sod1^G86R mice independently of any potential cardiotoxicity.
After dissection and rinse with PBS 1X, hearts were fixed for 72 h in formaldehyde 4% solution. After paraffin inclusion, cuts of 4 µm thickness were made. Hematoxylin/eosin staining was performed on these cuts. Inclusion and staining were performed by the department of histopathology and embyology of the mouse clinical institute (ICS, Illkirch-Graffenstaden). Valve imaging was performed with a Leica DFC425C camera mounted on a microscope Leica DM750, at × 10 magnification (cat# 506228, 10x/0.25 HI PLAN ∞/−), with LAS V4.8 software (Leica Microsystems). […] Average thickness was determined by rapporting the area on the length of the leaflet.

Ca^2+ channel, ds = assay: Radioligand binding competition dose-response (Euroscreen), Ca2+ channel diltiazem site
Description: as §1

Sod1^G86R mice = assay: Body weight, grip strength, onset and survival follow-up in ALS mouse model; format: in vivo; details: for median survival: p > 0.05 vs vehicle (109 days)
Text: Osmotic mini-pumps were collected at endstage, and mini-pump emptying was systematically checked. After mini-pump implantation, mice were longitudinally followed for body weight, grip strength and survival.
To this aim, we measured mitral valve thickness using histology (Fig. 3).
Sod1^G86R mice on FVB/N background were produced by rapid lineage extension at Charles River facility, France. The resulting animals were F1 hybrid FVB/NRj and FVB/NCrl. During experimentation, mice were housed at the animal facility of the Faculty of Medicine of the University of Strasbourg, in a conventional sanitary status. […] We included both females and males in equal proportions. […] Mice were sacrificed at end-stage by lethal intraperitoneal injection of pentobarbital (Doléthal 120 mg/kg, Vetoquinol, France). Spinal cord, brain and blood samples were then collected. All animal care and procedures were in accordance with institutional guidelines and European regulations.
Mice were visually monitored daily for any potential ethical issue. Body weight and muscular strength were monitored twice a week. Muscular strength was assessed using a gripmeter test (ALG01, Bioseb, France). Results are the mean of three successive measures and were normalized by body weight. Onset of the pathology was calculated as the time between birth and peak of body weight. Duration of the disease is the time between onset and death of the mouse. End-stage was defined as the inability of the animal to turn around after 3 s placed on the back, and subsequent euthanasia followed. Muscular strength and weight loss are presented as percent loss from disease onset. […] Survival is presented as Kaplan–Meier curves.

DAT = molecular target: T4, DAT (Homo sapiens, UniProt Q01959); assay: Single-concentration radioligand binding screen (Eurofins Cerep), dopamine transporter; details: single concentration 10 µM screen, [3H]BTCP
T4 construct: Euroscreen FAST (contract assay)
T4 sequence (Q01959 whole entry, species assumed): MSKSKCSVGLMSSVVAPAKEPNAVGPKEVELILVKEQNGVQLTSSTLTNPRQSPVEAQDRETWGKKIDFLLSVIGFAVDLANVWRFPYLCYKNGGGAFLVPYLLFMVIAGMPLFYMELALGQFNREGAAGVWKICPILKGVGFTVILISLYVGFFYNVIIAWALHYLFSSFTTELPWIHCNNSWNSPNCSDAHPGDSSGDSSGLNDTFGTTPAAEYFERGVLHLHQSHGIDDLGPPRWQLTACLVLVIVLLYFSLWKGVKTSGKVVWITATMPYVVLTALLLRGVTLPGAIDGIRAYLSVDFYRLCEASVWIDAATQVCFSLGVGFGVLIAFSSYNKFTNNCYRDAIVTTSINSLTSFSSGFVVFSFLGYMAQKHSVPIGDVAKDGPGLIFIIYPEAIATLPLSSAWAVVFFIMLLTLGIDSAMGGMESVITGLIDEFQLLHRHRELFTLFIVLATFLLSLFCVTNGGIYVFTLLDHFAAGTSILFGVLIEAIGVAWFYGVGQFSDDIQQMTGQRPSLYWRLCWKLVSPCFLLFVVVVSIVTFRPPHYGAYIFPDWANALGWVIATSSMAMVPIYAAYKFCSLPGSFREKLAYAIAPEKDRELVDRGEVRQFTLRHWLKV
Description: as §1

[3] = IV 2 mg/kg, individual mice n1-n3, 2 mg/kg
[4] = PO 10 mg/kg, individual mice n1-n3, 10 mg/kg
[5] = SC 10 mg/kg, individual mice n1-n3, 10 mg/kg

Structure (SMILES): CC(N)Cc1c[nH]c2ccc(OCc3cccs3)cc12 (stereo not drawn) [BW, 1-[5-(thiophen-2-ylmethoxy)-1H-indol-3-yl]propan-2-amine]
- Tmax ([1]; in vivo): ~0.5 h
- concentration at 4 h ([1]; in vivo): 860 ng/g
- concentration at 8 h ([1]; in vivo): 14.4 ng/mL and 417 ng/g
- half-life ([1]; plasma): 1.1 h
- agonist activity in rat stomach fundus (5-HT2B receptor): potent agonist
- plasma detection at 24 h ([2]; 24 h after a single administration (data not shown)): no compound could be detected
- half-life ([2]; CD-1, mouse, iv, 2 mg/kg, T1/2, IV 2 mg/kg, individual mice n1-n3): 0.98 h
- half-life ([2]; CD-1, mouse, iv, 2 mg/kg, T1/2, IV 2 mg/kg, mean): 0.93 h
- bioavailability ([2]; CD-1, mouse, po, 10 mg/kg, PO 10 mg/kg): 4.72%
- half-life ([2]; CD-1, mouse, po, 10 mg/kg, T1/2, PO 10 mg/kg, mean): 2.55 h
- bioavailability ([2]; CD-1, mouse, sc, 10 mg/kg, SC 10 mg/kg): 35%
- half-life ([2]; CD-1, mouse, sc, 10 mg/kg, T1/2, SC 10 mg/kg, individual mice n1-n3): 1.14 h
- half-life ([2]; CD-1, mouse, sc, 10 mg/kg, T1/2, SC 10 mg/kg, mean): 1.37 h
- AUC0-inf ([2]; CD-1, mouse, plasma, iv, 2 mg/kg, AUC0-inf, IV 2 mg/kg, individual mice n1-n3): 289 ng·h/mL
- AUC0-inf ([2]; CD-1, mouse, plasma, iv, 2 mg/kg, AUC0-inf, IV 2 mg/kg, mean): 236 ng·h/mL
- C0 ([2]; CD-1, mouse, plasma, iv, 2 mg/kg, C0, IV 2 mg/kg, individual mice n1-n3): 406 ng/mL
- C0 ([2]; CD-1, mouse, plasma, iv, 2 mg/kg, C0, IV 2 mg/kg, mean): 354 ng/mL
- AUC0-inf ([2]; CD-1, mouse, plasma, po, 10 mg/kg, AUC0-inf, PO 10 mg/kg, individual mice n1-n3): 239 ng·h/mL
- AUC0-inf ([2]; CD-1, mouse, plasma, po, 10 mg/kg, AUC0-inf, PO 10 mg/kg, mean): 278 ng·h/mL
- Cmax ([2]; CD-1, mouse, plasma, po, 10 mg/kg, Cmax, PO 10 mg/kg, mean): 77 ng/mL
- Tmax ([2]; CD-1, mouse, plasma, po, 10 mg/kg, Tmax, PO 10 mg/kg, mean): 0.58 h
- AUC0-inf ([2]; CD-1, mouse, plasma, sc, 10 mg/kg, AUC0-inf, SC 10 mg/kg, individual mice n1-n3): 2030 ng·h/mL
- AUC0-inf ([2]; CD-1, mouse, plasma, sc, 10 mg/kg, AUC0-inf, SC 10 mg/kg, mean): 2070 ng·h/mL
- Cmax ([2]; CD-1, mouse, plasma, sc, 10 mg/kg, Cmax, SC 10 mg/kg, individual mice n1-n3): 1100 ng/mL
- Cmax ([2]; CD-1, mouse, plasma, sc, 10 mg/kg, Cmax, SC 10 mg/kg, mean): 1020 ng/mL
- Tmax ([2]; CD-1, mouse, plasma, sc, 10 mg/kg, Tmax, SC 10 mg/kg, mean): 0.19 h
- AUC0-inf [2, 3]: 221 ng·h/mL and 199 ng·h/mL
- AUCExtra [2, 3]: 4.8% and 3.5% and 4.5%
- C0 [2, 3]: 290 ng/mL and 366 ng/mL
- T1/2 [2, 3]: 0.84 h and 0.98 h
- AUCExtra ([2]; IV 2 mg/kg, mean): 4.3%
- AUC0-inf [2, 4]: 294 ng·h/mL and 302 ng·h/mL
- AUCExtra [2, 4]: 29.9% and 7.2% and 1.0%
- Cmax [2, 4]: 36.5 ng/mL and 61.5 ng/mL and 132 ng/mL
- T1/2 [2, 4]: 4.50 h and 2.01 h and 1.13 h
- Tmax [2, 4]: 0.25 h and 1.00 h
- AUCExtra ([2]; PO 10 mg/kg, mean): 12.7%
- AUC0-inf [2, 5]: 2246 ng·h/mL and 1938 ng·h/mL
- AUCExtra [2, 5]: 0.7% and 1.4% and 3.3%
- Cmax [2, 5]: 1010 ng/mL and 935 ng/mL
- T1/2 [2, 5]: 1.2 h and 1.65 h
- Tmax [2, 5]: 0.25 h (2×) and 0.08 h
- AUCExtra ([2]; SC 10 mg/kg, mean): 1.8%
- IC50 (5-HT1A): 589 nM
- inhibition at 10 µM (5-HT1A; dose-response study, maximal concentration 10 µM, [3H]8-OH-DPAT): 95%
- %Binding inhibition at 10 µM (5-HT1A; dose-response study, maximal concentration 10 µM, [3H]8-OH-DPAT, 10 µM): 95.26%
- inhibition at 10 µM (NET): 68.7%
- IC50 (5-HT1B): 182 nM
- %Binding inhibition at 10 µM (5-HT1B; dose-response study, maximal concentration 10 µM, [3H]5-CT, 10 µM): 101.39%
- inhibition at 10 µM (5-HT1B; read-out: %Binding inhibition at 10 µM, dose-response study, maximal concentration 10 µM, [3H]5-CT): 100%
- mitral valve thickness (mitral valve): 60.2 µm
- pIC50 (Ca^2+ channel, ds; [3H]diltiazem competition): 6.11
- %Binding inhibition at 10 µM (Ca^2+ channel, ds; dose-response study, maximal concentration 10 µM, [3H]diltiazem): 35.80%
- median survival (Sod1^G86R mice; 1 mg/kg/d): 107 days
- median survival (Sod1^G86R mice; 3 mg/kg/d): 109 days
- disease onset (Sod1^G86R mice; 1 or 3 mg/kg/d, compared to vehicle): unchanged
- inhibition at 10 µM (DAT): 81.9%
